Measurements from patent US20200397728A1, “PHARMACEUTICAL FORMULATION FOR CARGLUMIC ACID” (RECORDATI S.p.A., priority 2019, published 2020).
Read-outs that look alike come from different tables or passages of the source.

How the values were obtained:
[1] = cited from earlier work
[2] = Stability/compatibility of carglumic acid-excipient binary mixes, HPLC chromatographic purity; assay type: physicochemical
Protocol: Carglumic acid alone was also stored under the same conditions. […] Chromatographic purity have been tested for all the reported combinations and storage conditions. Under these chromatographic conditions the retention time (Rt) of carglumic acid is about 6.6 min. […] [table] [table]

[3] = 25° C./60% RH Closed bottles, 15 days
[4] = 25° C./60% RH Closed bottles, 30 days
[5] = 25° C./60% RH Open bottles, 7 days
[6] = 25° C./60% RH Open bottles, 15 days
[7] = 40° C./75% RH Closed bottles, 15 days
[8] = 40° C./75% RH Closed bottles, 30 days

Question: Which Solubility ([1]; boiling water) does the source give for `NC(=O)N[C@@H](CCC(=O)O)C(=O)O` [Carglumic Acid, Carglumic acid] here?
Answer: soluble

Question: What about the Solubility ([1]; cold water) of the same molecule?
Answer: slightly soluble

Question: What about the Solubility ([1]; organic solvents (cyclohexane, dichloromethane, ether)) of the same molecule?
Answer: practically insoluble

Question: And the “Imp. 1 RRT 1.93” value [2, 3]?
Answer: 0.01%

Question: And the “Imp. 2 RRT 2.21” value [2, 3]?
Answer: 0.00%

Question: And the “Imp. 5a RRT 2.34” value [2, 3]?
Answer: 0.01%

Question: And the “Imp. 5b RRT 2.77” value [2, 3]?
Answer: 0.00%

Question: And the “Imp. 6 RRT 1.20” value [2, 3]?
Answer: 0.00%

Question: What about the “Max, single unknown impurity” value [2, 3] of the same molecule?
Answer: 0.03%

Question: And the Total impurities [2, 3]?
Answer: 0.08%

Question: And the “Imp. 1 RRT 1.93” value [2, 4]?
Answer: 0.03%

Question: And the “Imp. 2 RRT 2.21” value [2, 4]?
Answer: 0.01%

Question: And the “Imp. 5a RRT 2.34” value [2, 4]?
Answer: 0.01%

Question: And the “Imp. 5b RRT 2.77” value [2, 4]?
Answer: 0.00%

Question: What about the “Imp. 6 RRT 1.20” value [2, 4] of the same molecule?
Answer: 0.00%

Question: What about the “Max, single unknown impurity” value [2, 4] of the same molecule?
Answer: 0.03%

Question: And the Total impurities [2, 4]?
Answer: 0.08%

Question: What about the “Imp. 1 RRT 1.93” value [2, 5] of the same molecule?
Answer: 0.03%

Question: What about the “Imp. 2 RRT 2.21” value [2, 5] of the same molecule?
Answer: 0.01%

Question: What about the “Imp. 5a RRT 2.34” value [2, 5] of the same molecule?
Answer: 0.02%

Question: What about the “Imp. 5b RRT 2.77” value [2, 5] of the same molecule?
Answer: 0.00%

Question: What about the “Imp. 6 RRT 1.20” value [2, 5] of the same molecule?
Answer: 0.00%

Question: And the “Max, single unknown impurity” value [2, 5]?
Answer: 0.05%

Question: And the Total impurities [2, 5]?
Answer: 0.18%

Question: What about the “Imp. 1 RRT 1.93” value [2, 6] of the same molecule?
Answer: 0.04%

Question: And the “Imp. 2 RRT 2.21” value [2, 6]?
Answer: 0.01%

Question: And the “Imp. 5a RRT 2.34” value [2, 6]?
Answer: 0.00%

Question: What about the “Imp. 5b RRT 2.77” value [2, 6] of the same molecule?
Answer: 0.00%

Question: What about the “Imp. 6 RRT 1.20” value [2, 6] of the same molecule?
Answer: 0.00%

Question: What about the “Max, single unknown impurity” value [2, 6] of the same molecule?
Answer: 0.02%

Question: And the Total impurities [2, 6]?
Answer: 0.11%

Question: And the “Imp. 1 RRT 1.93” value [2, 7]?
Answer: 0.03%

Question: And the “Imp. 2 RRT 2.21” value [2, 7]?
Answer: 0.01%

Question: What about the “Imp. 5a RRT 2.34” value [2, 7] of the same molecule?
Answer: 0.01%

Question: And the “Imp. 5b RRT 2.77” value [2, 7]?
Answer: 0.01%

Question: What about the “Imp. 6 RRT 1.20” value [2, 7] of the same molecule?
Answer: 0.00%

Question: And the “Max, single unknown impurity” value [2, 7]?
Answer: 0.02%

Question: And the Total impurities [2, 7]?
Answer: 0.12%

Question: And the “Imp. 1 RRT 1.93” value [2, 8]?
Answer: 0.03%

Question: And the “Imp. 2 RRT 2.21” value [2, 8]?
Answer: 0.01%

Question: What about the “Imp. 5a RRT 2.34” value [2, 8] of the same molecule?
Answer: 0.01%

Question: What about the “Imp. 5b RRT 2.77” value [2, 8] of the same molecule?
Answer: 0.00%

Question: And the “Imp. 6 RRT 1.20” value [2, 8]?
Answer: 0.00%

Question: And the “Max, single unknown impurity” value [2, 8]?
Answer: 0.03%

Question: And the Total impurities [2, 8]?
Answer: 0.11%

Question: And the “Imp. 1 RRT 1.93” value ([2]; 60° C. Closed bottles, 1 day)?
Answer: 0.03%

Question: And the “Imp. 2 RRT 2.21” value ([2]; 60° C. Closed bottles, 1 day)?
Answer: 0.01%

Question: What about the “Imp. 5a RRT 2.34” value ([2]; 60° C. Closed bottles, 1 day) of the same molecule?
Answer: 0.01%

Question: What about the “Imp. 5b RRT 2.77” value ([2]; 60° C. Closed bottles, 1 day) of the same molecule?
Answer: 0.00%

Question: What about the “Imp. 6 RRT 1.20” value ([2]; 60° C. Closed bottles, 1 day) of the same molecule?
Answer: 0.00%

Question: What about the “Max, single unknown impurity” value ([2]; 60° C. Closed bottles, 1 day) of the same molecule?
Answer: 0.02%

Question: What about the Total impurities ([2]; 60° C. Closed bottles, 1 day) of the same molecule?
Answer: 0.10%

Question: What about the “Imp. 1 RRT 1.93” value ([2]; t = 0) of the same molecule?
Answer: 0.02%

Question: What about the “Imp. 2 RRT 2.21” value ([2]; t = 0) of the same molecule?
Answer: 0.01%

Question: And the “Imp. 5a RRT 2.34” value ([2]; t = 0)?
Answer: 0.00%

Question: What about the “Imp. 5b RRT 2.77” value ([2]; t = 0) of the same molecule?
Answer: 0.01%

Question: And the “Imp. 6 RRT 1.20” value ([2]; t = 0)?
Answer: 0.00%

Question: What about the “Max, single unknown impurity” value ([2]; t = 0) of the same molecule?
Answer: 0.03%

Question: And the Total impurities ([2]; t = 0)?
Answer: 0.07%
